Results taken from patent US12325697B2 (Nimbus Clio, Inc., priority 2021, dated 2025).

How the values were obtained:
[1] = target: Recombinant human c-Cbl (aa 47-435) (Homo sapiens (Human), UniProt P22681); assay: c-Cbl Biochemical Assay (TR-FRET)
Summary of the method: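 TR-FRET binding of UBE2D2-Ub-Bodipy (100 nM) to biotinylated c-Cbl (aa 47-435, 6 nM) via Streptavidin-Tb, measured after c-Cbl activation by Src-Zap70 with 0.5 mM ATP (60-90 min RT, 30 min compound preincubation). Ten-point half-log dilutions, 1% DMSO; IC50 by 4-parameter fit of normalized inhibition.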

[2] = target: Recombinant human Cbl-b (aa 36-427) (Homo sapiens (Human), UniProt Q13191); assay: Cbl-b Biochemical Assay (TR-FRET); settings: read-out: TR-FRET hCbl-b IC50
Chain of Recombinant human Cbl-b (aa 36-427) (Q13191 36-427): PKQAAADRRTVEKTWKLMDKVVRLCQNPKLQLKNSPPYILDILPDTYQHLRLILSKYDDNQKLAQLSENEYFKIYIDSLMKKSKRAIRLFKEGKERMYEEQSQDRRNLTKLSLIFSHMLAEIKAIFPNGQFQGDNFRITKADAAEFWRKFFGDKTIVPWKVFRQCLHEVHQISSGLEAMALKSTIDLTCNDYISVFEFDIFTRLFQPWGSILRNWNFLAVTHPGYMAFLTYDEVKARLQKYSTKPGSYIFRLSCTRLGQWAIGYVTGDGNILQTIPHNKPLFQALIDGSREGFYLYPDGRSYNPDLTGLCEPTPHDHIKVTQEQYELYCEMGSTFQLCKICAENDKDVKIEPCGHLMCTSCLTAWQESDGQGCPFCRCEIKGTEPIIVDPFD
Summary of the method: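 IC50 from 4-parameter fit of % inhibition (DMSO max, reference-inhibitor min), duplicate ten-point series. Compound preincubated with 6 nM Cbl-b, then Src-Zap70 (1-2.5 nM)/0.5 mM ATP reaction 60 min RT; EDTA quench with labelled UBE2D2-Ub and streptavidin-terbium, 60 min, HTRF at 520 nm.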

Chain of Recombinant human c-Cbl (aa 47-435) (P22681 47-435): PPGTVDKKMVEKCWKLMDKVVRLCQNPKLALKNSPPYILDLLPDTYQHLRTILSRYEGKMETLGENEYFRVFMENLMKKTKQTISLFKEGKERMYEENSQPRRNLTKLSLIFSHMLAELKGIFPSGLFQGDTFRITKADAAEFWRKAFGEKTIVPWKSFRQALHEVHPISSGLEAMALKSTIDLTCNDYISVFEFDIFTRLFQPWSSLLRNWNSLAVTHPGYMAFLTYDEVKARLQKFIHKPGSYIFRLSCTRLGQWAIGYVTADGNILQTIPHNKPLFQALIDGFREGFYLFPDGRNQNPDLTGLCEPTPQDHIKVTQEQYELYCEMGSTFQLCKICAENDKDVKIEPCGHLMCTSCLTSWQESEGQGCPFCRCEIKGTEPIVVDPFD

CC(=O)NCCNCc1ccc2c(c1)C(=O)N(c1cc(-c3ccc(C#N)cc3-c3nncn3C)cc(C3CC3)n1)C2 [AMB-1, N-(2-{[(2-{4-[4-Cyano-2-(4-methyl-1,2,4-triazol-3-yl)phenyl]-6-cyclopropylpyridin-2-yl}-3-oxo-1H-isoindol-5-yl)methyl]amino}ethyl)acetamide]
IC50 [1]: ≤ 200 nM | IC50 [2]: ≤ 200 nM

C#CCOc1ccc(-c2cc(NCC)nc(N3Cc4c(cccc4C(F)(F)F)C3=O)c2)c(-c2nncn2C)c1 [AHU-12, 2-[6-(Ethylamino)-4-[2-(4-methyl-1,2,4-triazol-3-yl)-4-(prop-2-yn-1-yloxy)phenyl]pyridin-2-yl]-4-(trifluoromethyl)-3H-isoindol-1-one]
IC50 [1]: 200 to 1000 nM | IC50 [2]: ≤ 200 nM

CNC[C@@H](O)COc1ccc2c(c1)C(=O)N(c1cc(-c3ccc(C#N)cc3-c3nncn3C)cc(C3CC3)n1)C2 [AJV-3, 4-(2-Cyclopropyl-6-{6-[(2R)-2-hydroxy-3-(methylamino)propoxy]-1-oxo-3H-isoindol-2-yl}pyridin-4-yl)-3-(4-methyl-1,2,4-triazol-3-yl)benzonitrile]
IC50 [1]: ≤ 200 nM | IC50 [2]: ≤ 200 nM

Cn1cnnc1-c1cc(C#N)ccc1-c1cc(C2CC2)nc(N2Cc3ccc(CN4CCC5(CC5)C4)cc3C2=O)c1 [AND-1, 4-[2-(6-{5-Azaspiro[2.4]heptan-5-ylmethyl}-1-oxo-3H-isoindol-2-yl)-6-cyclopropylpyridin-4-yl]-3-(4-methyl-1,2,4-triazol-3-yl)benzonitrile]
IC50 [1]: ≤ 200 nM | IC50 [2]: ≤ 200 nM

Cn1cnnc1-c1cc(C#N)ccc1-c1cc(C2CC2)nc(N2Cc3ccc([C@@H]4COC[C@H](C5CCC5)N4)cc3C2=O)c1 (stereo in doubt) [AOQ-1, rel-4-(2-{6-[(3R,5S)-5-Cyclobutylmorpholin-3-yl]-1-oxo-3H-isoindol-2-yl}-6-cyclopropylpyridin-4-yl)-3-(4-methyl-1,2,4-triazol-3-yl)benzonitrile]
IC50 [1]: ≤ 200 nM | IC50 [2]: ≤ 200 nM

Cn1cnnc1-c1cc(C#N)ccc1-c1cc(C2CC2)nc(N2Cc3ccc(CNC4CCOCC4)cc3C2=O)c1 [AMO-2, 4-(2-Cyclopropyl-6-{6-[(oxan-4-ylamino)methyl]-1-oxo-3H-isoindol-2-yl}pyridin-4-yl)-3-(4-methyl-1,2,4-triazol-3-yl)benzonitrile]
IC50 [1]: ≤ 200 nM | IC50 [2]: ≤ 200 nM

C[C@H](NCc1ccc2c(c1)C(=O)N(c1cc(-c3ccc(C#N)cc3-c3nncn3C)cc(C3CC3)n1)C2)C1CCC1 [AOK-2, 4-{2-[6-({[(1S)-1-Cyclobutylethyl]amino}methyl)-1-oxo-3H-isoindol-2-yl]-6-cyclopropylpyridin-4-yl}-3-(4-methyl-1,2,4-triazol-3-yl)benzonitrile]
IC50 [1]: ≤ 200 nM | IC50 [2]: ≤ 200 nM

Cn1cnnc1-c1cc(F)ccc1-c1cc(C2CC2)nc(N2Cc3c(cc(COCCO)cc3C(F)(F)F)C2=O)c1 [AHX-2, 2-(6-Cyclopropyl-4-(4-fluoro-2-(4-methyl-4H-1,2,4-triazol-3-yl)phenyl)pyridin-2-yl)-6-((2-hydroxyethoxy)methyl)-4-(trifluoromethyl)isoindolin-1-one]
IC50 [1]: ≤ 200 nM | IC50 [2]: ≤ 200 nM

CN(Cc1ccc2c(c1)C(=O)N(c1cc(-c3ccc(C#N)cc3-c3nncn3C)cc(C3CC3)n1)C2)CC(C)(C)O [AMH-1, 4-[2-Cyclopropyl-6-(6-{[(2-hydroxy-2-methylpropyl)(methyl)amino]methyl}-1-oxo-3H-isoindol-2-yl)pyridin-4-yl]-3-(4-methyl-1,2,4-triazol-3-yl)benzonitrile]
IC50 [1]: ≤ 200 nM | IC50 [2]: ≤ 200 nM

Cn1cnnc1-c1cc(C#N)ccc1-c1cc(C2CC2)nc(N2Cc3c(F)cc(CNCC4(C)CCC4)cc3C2=O)c1 [ALO-2, 4-{2-Cyclopropyl-6-[4-fluoro-6-({[(1-methylcyclobutyl)methyl]amino}methyl)-1-oxo-3H-isoindol-2-yl]pyridin-4-yl}-3-(4-methyl-1,2,4-triazol-3-yl)benzonitrile]
IC50 [1]: ≤ 200 nM | IC50 [2]: ≤ 200 nM

Cn1cnnc1-c1cc(C#N)ccc1-c1cc(C2CC2)nc(N2Cc3c(cc(COCC4(O)CCC4)cc3C(F)(F)F)C2=O)c1 [AHP-1, 4-(2-Cyclopropyl-6-(6-(((1-hydroxycyclobutyl)methoxy)methyl)-1-oxo-4-(trifluoromethyl)isoindolin-2-yl)pyridin-4-yl)-3-(4-methyl-4H-1,2,4-triazol-3-yl)benzonitrile]
IC50 [1]: ≤ 200 nM | IC50 [2]: ≤ 200 nM

COCCN(C)Cc1cc(F)c2c(c1)C(=O)N(c1cc(-c3ccc(C#N)cc3-c3nncn3C)cc(C3CC3)n1)C2 [ANT-1, 4-[2-Cyclopropyl-6-(4-fluoro-6-{[(2-methoxyethyl)(methyl)amino]methyl}-1-oxo-3H-isoindol-2-yl)pyridin-4-yl]-3-(4-methyl-1,2,4-triazol-3-yl)benzonitrile]
IC50 [1]: ≤ 200 nM | IC50 [2]: ≤ 200 nM

Cn1cnnc1-c1cc(C#N)ccc1-c1cc(C2CC2)nc(N2Cc3ccc(CNCC(C)(C)O)cc3C2=O)c1 [AIE-1, 4-[2-Cyclopropyl-6-(6-{[(2-hydroxy-2-methylpropyl)amino]methyl}-1-oxo-3H-isoindol-2-yl)pyridin-4-yl]-3-(4-methyl-1,2,4-triazol-3-yl)benzonitrile]
IC50 [1]: ≤ 200 nM | IC50 [2]: ≤ 200 nM

CCOCCNCc1ccc2c(c1)C(=O)N(c1cc(-c3ccc(C#N)cc3-c3nncn3C)cc(C3CC3)n1)C2 [AIN-2, 4-[2-cyclopropyl-6-(6-{[(2-ethoxyethyl)amino]methyl}-1-oxo-3H-isoindol-2-yl)pyridin-4-yl]-3-(4-methyl-1,2,4-triazol-3-yl)benzonitrile]
IC50 [1]: ≤ 200 nM | IC50 [2]: ≤ 200 nM

Cn1cnnc1-c1cc(C#N)ccc1-c1cc(C2CC2)nc(N2Cc3ccc(CNCC4(C)COC4)cc3C2=O)c1 [AMU-2, 4-{2-Cyclopropyl-6-[6-({[(3-methyloxetan-3-yl)methyl]amino}methyl)-1-oxo-3H-isoindol-2-yl]pyridin-4-yl}-3-(4-methyl-1,2,4-triazol-3-yl)benzonitrile]
IC50 [1]: ≤ 200 nM | IC50 [2]: ≤ 200 nM

CN(Cc1ccc2c(c1)C(=O)N(c1cc(-c3ccc(F)cc3-c3nncn3C)cc(C3CC3)n1)C2)CC(C)(C)O [AMM-1, 2-{6-Cyclopropyl-4-[4-fluoro-2-(4-methyl-1,2,4-triazol-3-yl)phenyl]pyridin-2-yl}-6-{[(2-hydroxy-2-methylpropyl)(methyl)amino]methyl}-3H-isoindol-1-one]
IC50 [1]: ≤ 200 nM | IC50 [2]: ≤ 200 nM

Cn1cnnc1-c1cc(C#N)ccc1-c1cc(C2CC2)nc(N2Cc3cnc(CO)cc3C2=O)c1 [ALE-7, 4-{2-Cyclopropyl-6-[6-(hydroxymethyl)-1-oxo-3H-pyrrolo[3,4-c]pyridin-2-yl]pyridin-4-yl}-3-(4-methyl-1,2,4-triazol-3-yl)benzonitrile]
IC50 [1]: ≤ 200 nM | IC50 [2]: 200 to 1000 nM

Cn1cnnc1-c1cc(C#N)ccc1-c1cc(C2CC2)nc(N2Cc3c(F)cc(CN4C[C@]5(C)C[C@H]4CO5)cc3C2=O)c1 [ANU-3, 4-(2-cyclopropyl-6-(4-fluoro-6-(((1S,4S)-1-methyl-2-oxa-5-azabicyclo[2.2.1]heptan-5-yl)methyl)-1-oxoisoindolin-2-yl)pyridin-4-yl)-3-(4-methyl-4H-1,2,4-triazol-3-yl)benzonitrile]
IC50 [1]: ≤ 200 nM | IC50 [2]: ≤ 200 nM
